Test results from patent US12378201B2, “Histone demethylase inhibitors for treating cancers” (The Board of Regents of the University of Texas System, priority 2019, dated 2025).

Assays:
LnCap cells = assay: Effect on LnCap cell viability; settings: for viability at 1 µM: Homo sapiens, LNCaP, read-out: % Cell Viability of LnCap cells at 1 μM, 1 μM
Experimental: (§1) The initial interest was to see the importance of length of side chain on B-3. […] Relative cell growth can be assessed using the MTT (3-(4,5-dimethylthiazol-2-yl)-2,5-diphenyltetrazolium bromide) assay, a colorimetric assay for assessing cell metabolic activity. Cells (1000 to 2000 cells/well) in 150 μL culture medium were seeded in wells of a 96-well plate one day before various concentrations of drugs were added. After continuing culture in the presence of the drugs for the indicated time (3-4 days), 20 μL of 5 mg/mL MTT solution (Sigma-Aldrich) was added into each well. After incubation at 37° C. for 30 min, the culture medium was removed and 100 μL of DMSO was added to dissolve MTT crystals. Plates were shaken for 15 min at room temperature and absorbance at OD590 was read by plate reader.

22rv1 = assay: Effect on 22rv1 cell viability; settings: for viability at 0.5 µM: 22Rv1, read-out: % Cell Viability of 22rv1 at 0.5 μM
Experimental: as §1

[1] = system: LNCaP and 22rv1 cell lines; assay: SAR statements on LNCaP and 22rv1 cell lines; format: cell-based; settings: LNCaP 1 μM, 22rv1 0.5 μM
Experimental: All compounds were evaluated for their effects on LNCaP and 22rv1 cell lines at 1 and 0.5 μM concentrations, respectively. […] For this purpose different analogues of B-3 with chain length varying from 0 to 4 carbon were synthesized (Table 1). […] In view of the availability of a variety of commercially available benzyl amines over phenyl propyl amines and method to functionalize analogues with 1C chain compound 14c was selected for further modification.

[2] = system: cancer cell lines including PC3; settings: previous report; includes PC3 cells lacking AR; cited from earlier work
KDM4 = settings: previous report; cited from earlier work
[3] = system: KDM4B-regulated AR-V7 expression; settings: previous report; cited from earlier work

Row | Compound | % Cell Viability of LnCap cells at 1 μM (LnCap cells) | activity on cell lines, in words (SAR) [1] | further results
1 | O=C(NCc1ccccc1O)c1cccc(-c2cc(O)c3ncccc3c2)c1 [Compound 15f] | 56.9% |  | 
2 | O=C(NCc1ccc(C(=O)NC2CCCCCC2)cc1)c1cccc(-c2cc(O)c3ncccc3c2)c1 [Compound 17k] |  | loss of activity | % Cell Viability of 22rv1 at 0.5 μM (22rv1): 10.8%
3 | O=C(NCc1ccncc1)c1cccc(-c2cc(O)c3ncccc3c2)c1 [Compound 15u] | 70.9% |  | 
4 | NC(=O)c1ccc(CNC(=O)c2cccc(-c3cc(O)c4ncccc4c3)c2)cc1 [Compound 17b] |  | lower activity than B-3 | % Cell Viability of 22rv1 at 0.5 μM (22rv1): 78.4%
5 | O=C(NCc1cccc(-c2ccc(F)cc2)c1)c1cccc(-c2cc(O)c3ncccc3c2)c1 [Compound 16i] | 17.3% |  | % Cell Viability of 22rv1 at 0.5 μM (22rv1): 42.01%
6 | O=C(NCc1ccc(Oc2ccc(F)cc2)cc1)c1cccc(-c2cc(O)c3ncccc3c2)c1 [Compound 16d] |  |  | % Cell Viability of 22rv1 at 1 μM (22rv1; at 1 μM (stated in cell)): 35.1%
7 | COc1cc(CNC(=O)c2cccc(-c3cc(O)c4ncccc4c3)c2)cc(OC)c1OC [Compound 15k] | 98.1 (B-3, ND) % |  | 
8 | O=C(NCc1ccc(C(=O)N[C@H]2CC[C@H](C(F)(F)F)CC2)cc1)c1cccc(-c2cc(O)c3ncccc3c2)c1 [Compound 17m] | 24.2% | much more active than compound 17n | 
9 | CCCOC(=O)c1ccc(CNC(=O)c2cccc(-c3cc(O)c4ncccc4c3)c2)cc1 [Compound 17e] |  | better than compound 17c | % Cell Viability of 22rv1 at 0.5 μM (22rv1): 7.9%
10 | O=C(O)c1ccc(CNC(=O)c2cccc(-c3cc(O)c4ncccc4c3)c2)cc1 [Compound 17a] |  |  | viability at 1 µM (LnCap cells): 97.5%
11 | O=C(NCc1ccc(C(=O)Nc2ccc(C(F)(F)F)cc2)cc1)c1cccc(-c2cc(O)c3ncccc3c2)c1 [Compound 17o] |  | significantly lower activities compared to compounds 17l and 17m | 
12 | CC(C)CNC(=O)c1ccc(CNC(=O)c2cccc(-c3cc(O)c4ncccc4c3)c2)cc1 [Compound 17f] |  | proved useful | % Cell Viability of 22rv1 at 0.5 μM (22rv1): 41.0%
13 | O=C(NCc1ccc(C(F)(F)F)cc1F)c1cccc(-c2cc(O)c3ncccc3c2)c1 [Compound 15r] | 101% |  | 
14 | O=C(NCC1CCCCC1)c1cccc(-c2cc(O)c3ncccc3c2)c1 [Compound 15x] | 104% (B-3, ND) |  | 
15 | O=C(NCc1ccc(-c2ccc(C(F)(F)F)cc2)cc1)c1cccc(-c2cc(O)c3ncccc3c2)c1 [Compound 16f] | 44.2% |  | 
16 | COc1ccc(CNC(=O)c2cccc(-c3cc(O)c4ncccc4c3)c2)cc1OC [Compound 15l] | 75.7 (B-3, ND) % |  | 
17 | COc1ccc(CNC(=O)c2cccc(-c3cc(O)c4ncccc4c3)c2)cc1 [Compound 15g] | 68.4% |  | 
18 | COC(=O)c1ccc(CNC(=O)c2cccc(-c3cc(O)c4ncccc4c3)c2)cc1 [Compound 17c] |  |  | viability at 0.5 µM (22rv1; Homo sapiens): 12.9%; viability at 1 µM (LnCap cells): 47.9%
19 | O=C(NCc1ccccc1C(F)(F)F)c1cccc(-c2cc(O)c3ncccc3c2)c1 [Compound 15o] | 94.5% |  | 
20 | O=C(NCCCc1ccccc1)c1cccc(-c2cc(O)c3ncccc3c2)c1 [Compound B-3, reference compound] |  |  | effectiveness against cancer cell lines, in words [2]: highly effective against a variety of cancer cell lines including PC3; viability at 0.5 µM (22rv1; Homo sapiens): 63.6%; viability at 1 µM (22rv1; Homo sapiens, 22Rv1, read-out: % Cell Viability of 22rv1 at 1 μM): 42.5%; KDM4 inhibition, in words (KDM4): highly selective and potent KDM4 inhibitor; inhibition of KDM4B-regulated AR-V7 expression, in words [3]: able to inhibit KDM4B-regulated AR-V7 expression
21 | O=C(NCc1cccc(O)c1)c1cccc(-c2cc(O)c3ncccc3c2)c1 [Compound 15e] | 87.9% |  | 
22 | COc1cccc(CNC(=O)c2cccc(-c3cc(O)c4ncccc4c3)c2)c1 [Compound 15h] | 88.5% (B-3, ND) |  | 
23 | O=C(NCCc1ccccc1)c1cccc(-c2cc(O)c3ncccc3c2)c1 [Compound 14b] |  | deterioration of activity | % Cell Viability of 22rv1 at 0.5 μM (22rv1): 83.7% (B-3,
